According to PMC7438487, “Structural studies reveal flexible roof of active site responsible for ω-transaminase CrmG overcoming by-product inhibition” (Communications Biology, 2020):

Biological target: T1, CrmG (Actinoalloteichus sp. WH1-2216-6, UniProt H8Y6N2, W223A)
T1 construct: pET28a, N-terminal His-tag and 14 additional vector residues; expressed in E. coli BL21; dimer (114 kDa by DLS)
Experiment: UV-vis conversion of PLP to PMP
Assay type: biochemical
Details: 0.02 mM CrmG W223A, 0.2 mM PLP, 2 mM amino donor (L-Glu, L-Gln or L-Ala), 50 mM Tris pH 7.5, 30 °C

T1 sequence (H8Y6N2 entry or part of it W223A): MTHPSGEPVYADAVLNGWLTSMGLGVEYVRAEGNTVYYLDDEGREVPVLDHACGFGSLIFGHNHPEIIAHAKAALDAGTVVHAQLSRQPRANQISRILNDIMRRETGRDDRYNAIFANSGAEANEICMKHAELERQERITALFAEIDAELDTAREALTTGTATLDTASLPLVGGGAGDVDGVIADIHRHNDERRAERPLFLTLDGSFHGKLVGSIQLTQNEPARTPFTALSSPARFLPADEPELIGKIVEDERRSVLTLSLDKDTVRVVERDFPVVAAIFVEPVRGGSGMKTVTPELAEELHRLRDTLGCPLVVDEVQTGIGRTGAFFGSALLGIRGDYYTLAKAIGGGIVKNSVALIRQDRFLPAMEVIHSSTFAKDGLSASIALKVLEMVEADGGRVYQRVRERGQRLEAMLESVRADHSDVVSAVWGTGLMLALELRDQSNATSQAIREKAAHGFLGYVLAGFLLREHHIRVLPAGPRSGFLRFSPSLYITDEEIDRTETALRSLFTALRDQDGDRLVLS

## Cc1ncc(COP(=O)(O)O)c(C=O)c1O [PLP]
  UV-vis conversion of PLP to PMP: CrmG catalyzing PLP conversion to PMP is greatly improved by the mutation W223A
